Measured values as given in ChEMBL document CHEMBL5726851, “2-oxo-imidazopyridines as reversible BTK inhibitors and uses thereof” (2019).

Biological target: Tyrosine-protein kinase BTK (Homo sapiens, UniProt Q06187)
Assay: Microfluidic Off-Chip Mobility Shift Assay Protocol for Potency Assessment Against BTK Enzyme: Briefly, 2.5× stocks of full-length human BTK (08-080) from CarnaBio USA, Inc., Natick, Mass., 1.6×ATP and appropriate kinKDR peptide substrate (FITC-AHA-[…]-NH2; developed in-house) were prepared in kinase reaction buffer consisting of 25 mM MgCl2, 0.015% Brij-35 (30%), 100 mM HEPES, pH 7.5, and 10 mM DTT. 5 uL of enzyme buffer and 7.5 uL of ATP/kinKDR peptide substrate mix were added to Matrix (#115304) 384-well, sterile, polypropylene plates (Thermo Fisher Scientific, Hudson, N.H.) with 125 nL of serially diluted compounds prepared in 100% DMSO, and incubated for 90 min. at 27° C. Following the incubation period, reactions were stopped by adding 60 uL stop buffer consisting of 100 mM HEPES, pH 7.5, 0.015% Brij-35 (30%), 0.277% Coating Reagent #3 (Caliper Life Sciences, Mountain View, Calif.), 5% DMSO. Stopped reactions were monitored at −2 PSI, −3000 V/−700 V in a LabChip 3000 plate reader from Caliper Life Sciences, a PerkinElmer Company (Hopkinton, Mass.), and the activity was measured by off-chip mobility shift assay measuring the charge/mass difference between substrate and product resulting from peptide phosphorilation. IC50 and efficacy were determined by plotting log [Inhibitor] vs. % Activity in GeneData Screener (Basel, Switzerland).

Chain of Tyrosine-protein kinase BTK (Q06187 whole entry): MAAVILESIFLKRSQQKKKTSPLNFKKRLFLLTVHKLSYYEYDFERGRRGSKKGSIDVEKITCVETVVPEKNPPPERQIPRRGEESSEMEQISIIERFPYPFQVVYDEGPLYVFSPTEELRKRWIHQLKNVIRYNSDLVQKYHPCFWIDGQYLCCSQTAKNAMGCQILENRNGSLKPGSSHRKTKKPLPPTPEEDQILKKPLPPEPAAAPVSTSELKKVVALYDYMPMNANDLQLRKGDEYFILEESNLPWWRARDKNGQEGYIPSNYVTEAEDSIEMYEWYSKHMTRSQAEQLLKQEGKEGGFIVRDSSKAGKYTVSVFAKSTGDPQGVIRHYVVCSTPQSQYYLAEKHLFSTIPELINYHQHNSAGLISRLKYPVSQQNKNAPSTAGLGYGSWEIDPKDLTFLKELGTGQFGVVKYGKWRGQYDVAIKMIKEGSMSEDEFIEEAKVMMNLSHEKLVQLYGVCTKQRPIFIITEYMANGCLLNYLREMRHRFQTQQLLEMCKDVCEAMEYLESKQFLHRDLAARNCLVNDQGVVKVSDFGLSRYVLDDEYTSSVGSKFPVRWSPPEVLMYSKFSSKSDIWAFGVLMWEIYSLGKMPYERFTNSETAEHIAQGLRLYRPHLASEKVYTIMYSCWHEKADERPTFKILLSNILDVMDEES

CC(C)(C)c1cc(C(=O)NC2CCCCc3cc(-c4ccnc5[nH]c(=O)[nH]c45)ccc32)on1 (stereo unspecified)
IC50: < 10 nM
